The text below walks through data of ChEMBL document CHEMBL1165955, “Synthesis and biological evaluation of novel (4 or 5-aryl)pyrazolyl-indoles as inhibitors of interleukin-2 inducible T-cell kinase (ITK)” (Bioorg Med Chem, 2010).

Active and inactive are the calls of the source. The calls are words filed in the database; no cut-off is given here. A value given as a limit tells only on which side of the number the result lay.

The target in experiment [1] is T1, Tyrosine-protein kinase ITK/TSK (Homo sapiens, UniProt Q08881).
T1 sequence (Q08881 whole entry): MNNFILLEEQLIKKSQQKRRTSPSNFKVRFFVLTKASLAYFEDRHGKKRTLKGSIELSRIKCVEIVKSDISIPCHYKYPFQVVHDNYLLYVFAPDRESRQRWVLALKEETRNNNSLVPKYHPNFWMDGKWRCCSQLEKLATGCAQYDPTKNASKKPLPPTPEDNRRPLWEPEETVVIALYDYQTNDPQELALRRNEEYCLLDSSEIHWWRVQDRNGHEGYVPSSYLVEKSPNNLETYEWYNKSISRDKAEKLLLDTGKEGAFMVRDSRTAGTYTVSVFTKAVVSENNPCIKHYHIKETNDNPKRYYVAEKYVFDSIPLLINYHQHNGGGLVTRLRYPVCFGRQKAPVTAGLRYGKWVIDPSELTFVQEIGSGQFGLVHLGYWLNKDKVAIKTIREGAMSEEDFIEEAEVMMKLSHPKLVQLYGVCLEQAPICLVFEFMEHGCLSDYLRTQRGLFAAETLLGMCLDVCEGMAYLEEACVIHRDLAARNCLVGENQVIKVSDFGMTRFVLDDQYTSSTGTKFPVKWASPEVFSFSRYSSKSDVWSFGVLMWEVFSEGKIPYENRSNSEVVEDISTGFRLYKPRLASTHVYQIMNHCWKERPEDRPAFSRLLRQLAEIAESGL
Kind of experiment: Inhibition of GST-tagged full length recombinant ITK after 2 hrs by IMAP assay.

Experiment [2] in a line: Inhibition of histidine-tagged PKA catalytic domain after 40 mins by IMAP assay.
The target in a further experiment is Insulin receptor (Homo sapiens, UniProt P06213). Put plainly: Inhibition of GST-tagged recombinant INSR catalytic domain expressed in baculovirus-infected Sf21 cells after 80 mins by IMAP assay.
Chain of Insulin receptor (P06213 28-758 limits assumed): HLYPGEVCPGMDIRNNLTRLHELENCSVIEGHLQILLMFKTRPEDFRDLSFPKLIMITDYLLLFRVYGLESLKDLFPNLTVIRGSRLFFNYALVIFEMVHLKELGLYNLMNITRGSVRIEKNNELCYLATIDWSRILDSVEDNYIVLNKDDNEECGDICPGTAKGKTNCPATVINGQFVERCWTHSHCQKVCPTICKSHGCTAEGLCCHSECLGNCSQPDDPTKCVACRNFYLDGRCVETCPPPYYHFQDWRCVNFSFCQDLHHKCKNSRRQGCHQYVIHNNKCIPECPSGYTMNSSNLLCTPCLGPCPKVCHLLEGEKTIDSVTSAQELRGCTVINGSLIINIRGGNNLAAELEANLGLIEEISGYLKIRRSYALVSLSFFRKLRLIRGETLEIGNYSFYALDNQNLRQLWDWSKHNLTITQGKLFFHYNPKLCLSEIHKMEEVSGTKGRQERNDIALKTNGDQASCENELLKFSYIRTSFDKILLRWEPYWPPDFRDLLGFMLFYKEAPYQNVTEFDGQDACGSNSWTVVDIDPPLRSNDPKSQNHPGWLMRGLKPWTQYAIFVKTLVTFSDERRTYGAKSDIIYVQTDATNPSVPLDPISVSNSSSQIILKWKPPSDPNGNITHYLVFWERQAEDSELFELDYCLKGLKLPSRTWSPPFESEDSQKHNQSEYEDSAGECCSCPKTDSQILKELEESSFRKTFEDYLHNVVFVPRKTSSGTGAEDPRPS
Chain of Insulin receptor (P06213 763-1382 limits assumed): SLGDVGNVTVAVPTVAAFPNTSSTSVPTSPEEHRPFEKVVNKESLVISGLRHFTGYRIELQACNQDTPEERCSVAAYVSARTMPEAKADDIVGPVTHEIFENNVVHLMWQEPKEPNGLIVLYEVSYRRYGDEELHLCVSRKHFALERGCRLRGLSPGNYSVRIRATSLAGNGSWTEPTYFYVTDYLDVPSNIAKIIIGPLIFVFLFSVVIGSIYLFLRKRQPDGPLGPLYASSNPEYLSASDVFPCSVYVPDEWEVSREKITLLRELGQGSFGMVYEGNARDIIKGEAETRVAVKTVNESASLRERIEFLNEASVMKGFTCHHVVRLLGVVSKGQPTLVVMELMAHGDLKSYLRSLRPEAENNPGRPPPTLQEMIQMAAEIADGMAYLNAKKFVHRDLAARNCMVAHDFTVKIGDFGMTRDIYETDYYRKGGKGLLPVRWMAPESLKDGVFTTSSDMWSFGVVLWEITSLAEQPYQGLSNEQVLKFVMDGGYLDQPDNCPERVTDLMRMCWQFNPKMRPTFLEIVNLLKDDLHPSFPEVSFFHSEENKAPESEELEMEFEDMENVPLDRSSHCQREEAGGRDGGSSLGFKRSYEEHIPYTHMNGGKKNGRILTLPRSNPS
In experiment [3] the target is Glycogen synthase kinase-3 beta (Homo sapiens, UniProt P49841). Put plainly: Inhibition of GST-tagged full length GSK3-beta assessed as inhibition of ATP consumption after 60 mins by luminescence assay.
Chain of Glycogen synthase kinase-3 beta (P49841 whole entry): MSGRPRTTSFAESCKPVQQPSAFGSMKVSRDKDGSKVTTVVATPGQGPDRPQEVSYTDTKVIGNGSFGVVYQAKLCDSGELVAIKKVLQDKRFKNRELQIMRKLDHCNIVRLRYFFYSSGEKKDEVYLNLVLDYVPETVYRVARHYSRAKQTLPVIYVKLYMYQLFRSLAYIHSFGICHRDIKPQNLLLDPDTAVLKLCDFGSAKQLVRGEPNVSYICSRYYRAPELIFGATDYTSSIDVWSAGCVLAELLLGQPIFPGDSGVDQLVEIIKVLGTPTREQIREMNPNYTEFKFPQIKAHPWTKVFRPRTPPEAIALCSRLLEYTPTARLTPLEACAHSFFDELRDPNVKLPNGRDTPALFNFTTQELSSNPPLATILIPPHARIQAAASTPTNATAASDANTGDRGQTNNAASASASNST
Experiment [4] concerns the target Cyclin-dependent kinase 2/cyclin E1 (Homo sapiens, UniProt P24941). Put plainly: (§1) Inhibition of GST-tagged full length CDK2/Cyclin E after 40 mins by IMAP assay. Format: protein-complex assay.
Experiment [5] deals with RAC-alpha serine/threonine-protein kinase (Homo sapiens) (UniProt P31749). Kind of experiment: Inhibition of histidine-tagged full length AKT1 after 1 hr by IMAP assay.
Chain of RAC-alpha serine/threonine-protein kinase (Homo sapiens) (P31749 whole entry): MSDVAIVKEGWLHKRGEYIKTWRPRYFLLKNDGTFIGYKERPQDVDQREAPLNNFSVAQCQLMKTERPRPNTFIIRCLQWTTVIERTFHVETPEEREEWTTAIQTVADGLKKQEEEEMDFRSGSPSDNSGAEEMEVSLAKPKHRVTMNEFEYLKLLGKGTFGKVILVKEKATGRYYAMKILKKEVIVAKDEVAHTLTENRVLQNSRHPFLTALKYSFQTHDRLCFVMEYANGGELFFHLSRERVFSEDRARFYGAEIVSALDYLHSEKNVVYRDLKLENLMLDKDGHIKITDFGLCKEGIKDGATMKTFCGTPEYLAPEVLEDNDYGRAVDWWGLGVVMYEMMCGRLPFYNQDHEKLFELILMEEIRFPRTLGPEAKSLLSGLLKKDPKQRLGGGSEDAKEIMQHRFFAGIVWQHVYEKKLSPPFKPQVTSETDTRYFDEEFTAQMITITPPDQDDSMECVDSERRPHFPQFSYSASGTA
The target in experiment [6] is Cyclin-dependent kinase 2/cyclin E1 (Homo sapiens, UniProt P24864+P24941). The experiment is described as §1. Format: protein-complex assay.
Experiment [7] can be described thus: Selectivity ratio of IC50 for GST-tagged recombinant INSR catalytic domain to IC50 for GST-tagged full length recombinant ITK.

As for `CC(C)CN(C)C(=O)c1ccc2c(CNCCCO)c(-c3n[nH]cc3-c3ccccc3)[nH]c2c1`, the half-inhibitory concentration (IC50) in experiment [1] was more than 100000 nM.

On to `Cc1oncc1CNC(=O)c1ccc2cc(-c3n[nH]cc3-c3ccccc3)[nH]c2c1`, for which the IC50 in experiment [2] (read-out: IC50) worked out at 5010 nM; at Insulin receptor it was 5750 nM; in experiment [3] (read-out: IC50), 2290 nM; in experiment [1], 630 nM; in experiment [4], 400 nM.

As to `CC(C)CN(C)C(=O)c1ccc2c(CO)c(-c3n[nH]cc3-c3ccccc3)[nH]c2c1`, in experiment [1], the IC50 is more than 100000 nM.

With `Cn1cncc1CNC(=O)c1ccc2c(CN3CCOCC3)c(-c3cc(Cc4ccccc4)[nH]n3)[nH]c2c1`, the concentration for half-maximal inhibition (IC50) in experiment [1] is 630 nM.

Regarding `Cn1nccc1CNC(=O)c1ccc2cc(-c3cc(Cc4ccccc4)[nH]n3)[nH]c2c1`, the IC50 result in experiment [2] is “Not Active”; on Insulin receptor, 20000 nM; in experiment [3], “Not Active”; in experiment [1], 1000 nM; in experiment [4] it was 12600 nM.

Take `Cn1cncc1CNC(=O)c1ccc2cc(-c3n[nH]cc3-c3ccccc3)[nH]c2c1`: the IC50 turned out to be 10000 nM in experiment [2] (read-out: IC50); 7080 nM at Insulin receptor; 540 nM in experiment [3] (read-out: IC50); 790 nM in experiment [1]; 630 nM in experiment [4].

For the molecule `Cn1nccc1CNC(=O)c1ccc2c(CO)c(-c3cc(Cc4ccccc4)[nH]n3)[nH]c2c1`, in experiment [1], the IC50 worked out at 1580 nM.

As for `Cn1cncc1CNC(=O)c1ccc2cc(-c3cc(-c4ccccc4)[nH]n3)[nH]c2c1`, the IC50 in experiment [1] amounted to 1260 nM.

Regarding `Cn1cncc1CNC(=O)c1ccc2cc(-c3cc(Cc4ccccc4)[nH]n3)[nH]c2c1`, the IC50 entry in experiment [2] is “Not Active”; at Insulin receptor, 5010 nM; in experiment [3], “Not Active”; in experiment [1], 630 nM; in experiment [4], 31600 nM.

In the case of `COc1ccc(CNCc2c(-c3n[nH]cc3-c3ccccc3)[nH]c3cc(C(=O)N(C)CC(C)C)ccc23)cc1`, in experiment [1], the half-inhibitory concentration (IC50) stood at 20400 nM.

`Cn1nccc1CNC(=O)c1ccc2cc(-c3n[nH]cc3-c3ccccc3)[nH]c2c1`: the IC50 in experiment [2] (read-out: IC50) came out at 7080 nM; on Insulin receptor, 9330 nM; in experiment [3] (read-out: IC50) it was 1260 nM; in experiment [1], 630 nM; in experiment [4] it was 160 nM.

In the case of `CNC(=O)c1ccc2c(CNCc3ccncc3)c(-c3cc(Cc4ccccc4)[nH]n3)[nH]c2c1`, the IC50 in experiment [1] was 5000 nM.

For the molecule `CC(C)CN(C)C(=O)c1ccc2cc(-c3cc(-c4ccccc4)[nH]n3)[nH]c2c1`, in experiment [1], the IC50 was 850 nM.

With `Cc1oncc1CNC(=O)c1ccc2cc(-c3cc(-c4ccccc4)[nH]n3)[nH]c2c1`, the IC50 in experiment [1] is 1820 nM.

In the case of `CC(C)CN(C)C(=O)c1ccc2cc(-c3cc(Cc4ccccc4)[nH]n3)[nH]c2c1`, the IC50 result in experiment [2] is “Not Active”; on Insulin receptor, more than 100000 nM; in experiment [3] it was “Not Active”; in experiment [1] it was 560 nM; in experiment [6], “Not Active”. Also, the inhibition result in experiment [5] was “inactive”.

Take `CC(C)CN(C)C(=O)c1ccc2cc(-c3n[nH]cc3-c3ccccc3)[nH]c2c1`: the IC50 entry was “Not Active” in experiment [2]; more than 10000 nM on Insulin receptor; 6760 nM in experiment [3] (read-out: IC50); 330 nM in experiment [1]; 3160 nM in experiment [4]. For the same molecule, the Ratio IC50 in experiment [7] was more than 30.

As to `COCCNC(=O)c1ccc2cc(-c3n[nH]cc3-c3ccccc3)[nH]c2c1`, the IC50 in experiment [1] is 2510 nM.

As to `CC(C)CN(C)C(=O)c1ccc2c(CNCc3ccc(F)cc3)c(-c3cc(Cc4ccccc4)[nH]n3)[nH]c2c1`, the IC50 in experiment [1] amounted to 500 nM.

Regarding `Cn1nccc1CNC(=O)c1ccc2cc(-c3cc(-c4ccccc4)[nH]n3)[nH]c2c1`, the half-inhibitory concentration (IC50) in experiment [1] was 3160 nM.

Regarding `COCCNC(=O)c1ccc2cc(-c3cc(-c4ccccc4)[nH]n3)[nH]c2c1`, the IC50 in experiment [1] amounted to 3160 nM.

As usually defined, the IC50 is the midpoint of a concentration-inhibition curve.
